PubChem BioAssay AID270 (DTP/NCI, 2004)
“And” between values parts separate entries of the source, which are not always exact repeats. Identical values can stand only once. Inconclusive results are not listed.

System: BDF1 mice, s.c. Lewis lung carcinoma, T/C %
Assay: NCI In Vivo Anticancer Drug Screen. Data for tumor model Lewis Lung Carcinoma (subcutaneous) in B6D2F1 (BDF1) mice
Outline: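 Tumor-bearing mice were treated with test compound, and either survival or tumor size was recorded. Values are the treated-group measurement divided by that of the vehicle-treated control group.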

[1] = endpoint: mean tumor weight, dose: 12.5 mg/kg/injection, schedule: Q01DX011 (ip), vehicle: other, higher = larger tumour
[2] = endpoint: mean tumor weight, dose: 25.0 mg/kg/injection, schedule: Q01DX011 (ip), vehicle: other, higher = larger tumour
[3] = endpoint: mean tumor weight, dose: 50.0 mg/kg/injection, schedule: Q01DX011 (ip), vehicle: other, higher = larger tumour

What does the source list for COc1ccc2cc3[n+](cc2c1OC)CCc1cc2c(cc1-3)OCO2?
T/C (endpoint: mean tumor weight, dose: 12.0 mg/kg/injection, schedule: Q01DX011 (ip), vehicle: saline, higher = larger tumour): 96 % of control; T/C (endpoint: median survival time, dose: 0.12 mg/kg/injection, schedule: Q01DX009 (ip), vehicle: Klucel (hydroxypropylcellulose) (HPC), higher = longer survival): 102 % of control; T/C (endpoint: median survival time, dose: 0.25 mg/kg/injection, schedule: Q01DX009 (ip), vehicle: Klucel (hydroxypropylcellulose) (HPC), higher = longer survival): 107 % of control; T/C (endpoint: median survival time, dose: 0.5 mg/kg/injection, schedule: Q01DX009 (ip), vehicle: Klucel (hydroxypropylcellulose) (HPC), higher = longer survival): 112 % of control; T/C (endpoint: median survival time, dose: 1.0 mg/kg/injection, schedule: Q01DX009 (ip), vehicle: Klucel (hydroxypropylcellulose) (HPC), higher = longer survival): 110 % of control; T/C (endpoint: median survival time, dose: 2.0 mg/kg/injection, schedule: Q01DX009 (ip), vehicle: Klucel (hydroxypropylcellulose) (HPC), higher = longer survival): 95 % of control; T/C (endpoint: median survival time, dose: 4.0 mg/kg/injection, schedule: Q01DX009 (ip), vehicle: Klucel (hydroxypropylcellulose) (HPC), higher = longer survival): 100 % of control; T/C (endpoint: median survival time, dose: 8.0 mg/kg/injection, schedule: Q01DX009 (ip), vehicle: Klucel (hydroxypropylcellulose) (HPC), higher = longer survival): 92 % of control

Which T/C (endpoint: mean tumor weight, dose: 6.3 mg/kg/injection, schedule: Q01DX011 (ip), vehicle: other, higher = larger tumour) does the source give for Nc1nc(SCc2ccccc2Cl)c2ncn(C3OC(CO)C(O)C3O)c2n1 (stereo unspecified) here?
The T/C was 56 % of control.

And the T/C [1]?
Its T/C is 55 % of control.

And the T/C [2]?
The T/C was 49 % of control.

And the T/C [3]?
Its T/C is 28 % of control.

For CN(CCCOS(C)(=O)=O)CCCOS(C)(=O)=O, which T/C (endpoint: mean tumor weight, dose: 5.0 mg/kg/injection, schedule: Q01DX011 (ip), vehicle: saline, higher = larger tumour) is on record?
Its T/C is 85 % of control.

What about the T/C (endpoint: mean tumor weight, dose: 10.0 mg/kg/injection, schedule: Q01DX011 (ip), vehicle: saline, higher = larger tumour) of the same compound?
The T/C was 78 % of control.

And the T/C (endpoint: mean tumor weight, dose: 20.0 mg/kg/injection, schedule: Q01DX011 (ip), vehicle: saline, higher = larger tumour)?
Its T/C is 49 % of control.

And the T/C (endpoint: mean tumor weight, dose: 40.0 mg/kg/injection, schedule: Q01DX011 (ip), vehicle: saline, higher = larger tumour)?
The T/C was 59 % of control.

For O=C(CP(=O)(O)O)NC(CC(=O)OCc1ccccc1)C(=O)OCc1ccccc1 (stereo unspecified), which T/C (endpoint: median survival time, dose: 50.0 mg/kg/injection, schedule: Q01DX004 (ip), vehicle: saline, higher = longer survival) is on record?
The T/C was 114 % of control and 120 % of control.

What about the T/C (endpoint: median survival time, dose: 100.0 mg/kg/injection, schedule: Q01DX004 (ip), vehicle: saline, higher = longer survival) of the same compound?
The T/C was 120 % of control and 118 % of control.

What about the T/C (endpoint: median survival time, dose: 200.0 mg/kg/injection, schedule: Q01DX004 (ip), vehicle: saline, higher = longer survival) of the same compound?
The T/C was 109 % of control.

What about the T/C (endpoint: median survival time, dose: 400.0 mg/kg/injection, schedule: Q01DX004 (ip), vehicle: saline, higher = longer survival) of the same compound?
Its T/C is 109 % of control.

What about the T/C (endpoint: median survival time, dose: 800.0 mg/kg/injection, schedule: Q01DX004 (ip), vehicle: saline, higher = longer survival) of the same compound?
Its T/C is 116 % of control.

What does the source list for Cc1ccc(N2CCN(CCCN3CCN(c4ccc(Cl)cc4)CC3)CC2)cc1?
T/C [1]: 66 % of control; T/C [2]: 108 % of control; T/C [3]: 70 % of control; T/C (endpoint: mean tumor weight, dose: 100.0 mg/kg/injection, schedule: Q01DX011 (ip), vehicle: other, higher = larger tumour): 50 % of control

With C/C(=N\N=C(/C)c1ccc(-c2ccccc2)cc1)c1ccc(-c2ccccc2)cc1 as the compound, how does the T/C (endpoint: mean tumor weight, dose: 25.0 mg/kg/injection, schedule: Q01DX011 (ip), vehicle: saline, higher = larger tumour) read?
The T/C was 84 % of control.

And the T/C (endpoint: mean tumor weight, dose: 50.0 mg/kg/injection, schedule: Q01DX011 (ip), vehicle: saline, higher = larger tumour)?
Its T/C is 85 % of control.

And the T/C (endpoint: mean tumor weight, dose: 100.0 mg/kg/injection, schedule: Q01DX011 (ip), vehicle: saline, higher = larger tumour)?
The T/C was 76 % of control.

What about the T/C (endpoint: mean tumor weight, dose: 200.0 mg/kg/injection, schedule: Q01DX011 (ip), vehicle: saline, higher = larger tumour) of the same compound?
The T/C was 46 % of control.

For CNC(=S)N/N=C/c1ccc([N+](=O)[O-])s1, which T/C (endpoint: median survival time, dose: 25.0 mg/kg/injection, schedule: Q01DX009 (ip), vehicle: saline with Tween-80, higher = longer survival) is on record?
The T/C was 121 % of control.

O=C1C=Cc2ccc(O)cc2C1=O was tested. Which T/C (endpoint: mean tumor weight, dose: 0.57 mg/kg/injection, schedule: Q01DX011 (ip), vehicle: saline, higher = larger tumour) did it give?
The T/C was 104 % of control.

And the T/C (endpoint: mean tumor weight, dose: 0.86 mg/kg/injection, schedule: Q01DX011 (ip), vehicle: saline, higher = larger tumour)?
Its T/C is 81 % of control.

And the T/C (endpoint: mean tumor weight, dose: 1.3 mg/kg/injection, schedule: Q01DX011 (ip), vehicle: saline, higher = larger tumour)?
The T/C was 59 % of control.

And the T/C (endpoint: mean tumor weight, dose: 2.0 mg/kg/injection, schedule: Q01DX011 (ip), vehicle: saline, higher = larger tumour)?
Its T/C is 60 % of control.

Which results are given for CCC(=O)NC1=C(N2CC2)C(=O)C(NC(=O)CC)=C(N2CC2)C1=O?
T/C (endpoint: mean tumor weight, dose: 1.8 mg/kg/injection, schedule: Q01DX011 (ip), vehicle: other, higher = larger tumour): 72 % of control; T/C (endpoint: mean tumor weight, dose: 2.7 mg/kg/injection, schedule: Q01DX011 (ip), vehicle: other, higher = larger tumour): 54 % of control; T/C (endpoint: mean tumor weight, dose: 4.0 mg/kg/injection, schedule: Q01DX011 (ip), vehicle: other, higher = larger tumour): 27 % of control; T/C (endpoint: mean tumor weight, dose: 6.0 mg/kg/injection, schedule: Q01DX011 (ip), vehicle: other, higher = larger tumour): 28 % of control

How did the T/C (endpoint: mean tumor weight, dose: 15.0 mg/kg/injection, schedule: Q01DX011 (ip), vehicle: saline, higher = larger tumour) turn out when CC(=O)c1c(O)c(C)c(O)c(Cc2c(O)c3c(c(C(=O)/C=C/c4ccccc4)c2O)OC(C)(C)C=C3)c1O was run?
Its T/C is 96 % of control.

What about the T/C (endpoint: mean tumor weight, dose: 22.0 mg/kg/injection, schedule: Q01DX011 (ip), vehicle: saline, higher = larger tumour) of the same compound?
Its T/C is 82 % of control.

And the T/C (endpoint: mean tumor weight, dose: 35.0 mg/kg/injection, schedule: Q01DX011 (ip), vehicle: saline, higher = larger tumour)?
Its T/C is 79 % of control.
